Measured values published in patent US9271978B2 (Zenith Epigenetics Corp., priority 2012, dated 2016).

Key:
[1] = target: T1, second bromodomain of Brd2 (BRD2(2)) (Homo sapiens, UniProt P25440); assay: Inhibition of tetra-acetylated histone H4 binding to Brd2 bromodomain 2 (TR-FRET); parameters: key: Active: Compounds with an IC50 value less than 30 μM were deemed to be active.; Not Active: Compounds with an IC50 value less than 30 μM were deemed to be active; details: tetra-acetylated histone H4 peptide, active = IC50 <30 μM
T1 construct: made in house; host or cells: E. coli BL21 (DE3)
Method in brief: (§1)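 N-terminally His-tagged bromodomains (200 nM), expressed in E. coli, were incubated with biotinylated tetra-acetylated histone H4 peptide (25-50 nM), Eu-cryptate streptavidin and XL665 anti-His antibody in HEPES pH 7.4 buffer with KF, 0.2% DMSO, 2 h at room temperature. Inhibition read as decreased 665/620 nm TR-FRET; IC50 from dose-response curves.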

[2] = target: T2, Brd4 bromodomain 1 (BRD4(1)) (Homo sapiens, UniProt O60885); assay: Inhibition of tetra-acetylated histone H4 binding to Brd4 bromodomain 1 (TR-FRET); parameters: key: Active: Compounds with an IC50 value less than 30 μM were deemed to be active.; Not Active: Compounds with an IC50 value less than 30 μM were deemed to be active; details: tetra-acetylated histone H4 peptide, active = IC50 <30 μM
T2 construct: Illustrative results with the first bromodomain of Brd4; made in house; host or cells: E. coli BL21 (DE3)
Method in brief: as §1

c-myc = assay: Inhibition of c-myc expression in MV4-11 cells (mRNA, real-time PCR); format: cell-based; parameters: key: Active: Compounds with an IC50 value less than 30 μM were deemed to be active.; Not Active: Compounds with an IC50 value less than 30 μM were deemed to be active; details: Human AML MV4-11 cells, 3 h incubation
Method in brief: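 MV4-11 cells (2.5×10^4) treated with compound or 0.1% DMSO for 3 h at 37 °C. c-myc mRNA measured by RT real-time PCR duplexed with cyclophilin. IC50 from dose–response curve.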

ApoA-I mRNA = assay: Up-regulation of hApoA-1 mRNA transcription in Huh7 cells; format: cell-based, human; parameters: key: Active: Compounds with an EC170 value less than 30 μM were deemed to be active; details: 48 h treatment, ApoA-I mRNA by real-time PCR, Active = EC170 less than 30 μM
Method in brief: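 Huh7 cells treated with compound for 48 h. ApoA-I mRNA was then quantified in captured mRNA by one-step real-time RT-PCR. Fold induction calculated from Ct values relative to the matching DMSO control; EC170 is the concentration for 170% of control expression.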

hIL-6 mRNA = assay: Inhibition of hIL-6 mRNA transcription in U937 cells; format: cell-based, human; parameters: key: Active: Compounds with an IC50 value less than 30 μM were deemed to be active.; Not Active: Compounds with an IC50 value less than 30 μM were deemed to be active; details: LPS stimulation, active = IC50 <30 μM
Method in brief: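 U937 cells differentiated 3 days with 60 ng/mL PMA, pretreated 1 h with compound, then stimulated with 1 ug/mL E. coli LPS for 3 h at 37° C. hIL-6 mRNA quantified by one-step qRT-PCR, Ct normalized to internal control, expressed as fold induction relative to control.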

[3] = tested on: human AML MV-4-11 (CRL-9591) cells; assay: Inhibition of cell proliferation in MV4-11 cells; format: cell-based; parameters: key: Active: Compounds with an IC50 value less than 30 μM were deemed to be active.; Not Active: Compounds with an IC50 value less than 30 μM were deemed to be active; details: human AML MV-4-11 cells, 72 h; active = IC50 <30 μM
Method in brief: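 Exponentially growing MV-4-11 cells (5×10^4/well) were treated immediately with two-fold dilutions of compound from 30 μM to 0.2 μM, in triplicate, for 72 h at 37° C, 5% CO2. Viability was measured by MTS absorbance at 490 nm after 3–4 h. Proliferation relative to DMSO after blank correction gave IC50.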

T1 sequence (P25440 344-453 limits assumed): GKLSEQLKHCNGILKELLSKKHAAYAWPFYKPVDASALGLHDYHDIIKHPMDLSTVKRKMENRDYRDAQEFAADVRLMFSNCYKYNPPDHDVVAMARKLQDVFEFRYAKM

| Compound | FRET activity (IC50 <30 μM) BRD2(2) [1] | melting point [°C] | FRET activity (IC50 <30 μM) BRD4(1) [2] | c-myc activity (IC50 <30 μM) (c-myc) | ApoA-1 activity (EC170 <30 μM) (ApoA-I mRNA) | IL-6 activity (IC50 <30 μM) (hIL-6 mRNA) | Cell Proliferation activity (IC50 <30 μM) [3] |
| --- | --- | --- | --- | --- | --- | --- | --- |
| Cc1noc(C)c1-c1cn(Cc2ccccc2)c(=O)c2cccnc12 [Example 173, 6-Benzyl-8-(3,5-dimethylisoxazol-4-yl)-1,6-naphthyridin-5(6H)-one] | Active | 192 to 195 | Active |  |  |  |  |
| COc1ccc(-c2cn(Cc3ccccc3)c(=O)c3ccccc23)cc1OC [Example 166, 2-Benzyl-4-(3,4-dimethoxyphenyl)isoquinolin-1(2H)-one] | Not Active | 174 to 176 | Active |  |  |  |  |
| Cc1noc(C)c1-c1cn(Cc2ccccc2)c(=O)c2ccncc12 [Example 176, 2-Benzyl-4-(3,5-dimethylisoxazol-4-yl)-2,6-naphthyridin-1(2H)-one] | Active | 159 to 161 | Active |  |  |  |  |
| Cc1noc(C)c1-c1cn(Cc2ccccc2)c(=O)c2ncccc12 [Example 174, 7-Benzyl-5-(3,5-dimethylisoxazol-4-yl)-1,7-naphthyridin-8(7H)-one] | Active | 168 to 170 | Active |  |  |  |  |
| Cc1noc(C)c1-c1ccc(=O)n(Cc2ccc(F)cc2)c1 [Example 132, 5-(3,5-Dimethylisoxazol-4-yl)-1-(4-fluorobenzyl)pyridin-2(1H)-one] | Active |  | Active | Active | Active | Active | Active |
| CCC(c1ccccc1)n1cc(-c2c(C)noc2C)ccc1=O (stereo not drawn) [Example 43, 5-(3,5-Dimethylisoxazol-4-yl)-1-(1-phenylpropyl)pyridin-2(1H)-one] | Active |  | Active | Active | Active | Active | Active |
| Cc1noc(C)c1-c1ccc(=O)n(C(C)c2cccc(F)c2)c1 (stereo not drawn) [Example 104, 5-(3,5-Dimethylisoxazol-4-yl)-1-(1-(3-fluorophenyl)ethyl)pyridin-2(1H)-one] | Active |  | Active | Active | Active | Active | Active |
| Cc1noc(C)c1-c1ccc(=O)n(Cc2ccc3[nH]cnc3c2)c1 [Example 146, 1-((1H-benzo[d]imidazol-5-yl)methyl)-5-(3,5-dimethylisoxazol-4-yl)pyridin-2(1H)-one] | Active |  | Active | Active | Active | Active | Not Active |
| CNc1cc(-c2c(C)noc2C)cn(Cc2ccccc2)c1=O [Example 75, 1-Benzyl-5-(3,5-dimethylisoxazol-4-yl)-3-(methylamino)pyridin-2(1H)-one] | Active |  | Active | Active | Active | Active | Active |
| Cc1noc(C)c1-c1ccc(=O)n(Cc2cccc3[nH]ccc23)c1 [Example 149, 1-((1H-Indol-4-yl)methyl)-5-(3,5-dimethylisoxazol-4-yl)pyridin-2(1H)-one] | Active |  | Active | Active | Active | Active | Active |
| Cc1noc(C)c1-c1ccc(=O)n(CC2CCC2)c1 [Example 49, 1-(Cyclobutylmethyl)-5-(3,5-dimethylisoxazol-4-yl)pyridin-2(1H)-one] | Active |  | Active | Active | Active | Active | Active |
| Cc1noc(C)c1-c1ccc(=O)n(Cc2ccc(Cl)cn2)c1 [Example 55, 1-((5-Chloropyridin-2-yl)methyl)-5-(3,5-dimethylisoxazol-4-yl)pyridin-2(1H)-one] | Active |  | Active | Active | Active | Active | Active |
| COc1ccc(Nc2ccc(=O)n(Cc3ccccc3)n2)cc1OC [Example 60, 2-Benzyl-6-((3,4-dimethoxyphenyl)amino)pyridazin-3(2H)-one] | Active |  | Active | Not Active | Active | Active | Not Active |
| Cc1noc(C)c1-c1ccc(=O)n(Cc2ccccc2)n1 [Example 14, 2-Benzyl-6-(3,5-dimethylisoxazol-4-yl)pyridazin-3(2H)-one] | Active |  | Active | Not Active | Active | Active | Active |
| Cc1noc(C)c1-c1cn(Cc2ccccc2)c(=O)c2cnccc12 [Example 175, 2-Benzyl-4-(3,5-dimethylisoxazol-4-yl)-2,7-naphthyridin-1(2H)-one] | Active | 174 to 177 | Active |  |  |  |  |
| Cc1noc(C)c1-c1ccc(=O)n(C(C)c2ccccc2)c1 (stereo not drawn) [Example 125, 5-(3,5-Dimethylisoxazol-4-yl)-1-(1-phenylethyl)pyridin-2(1H)-one] | Active |  | Active | Active | Active | Active | Active |
| Cc1noc(C)c1-c1ccc(=O)n(Cc2ccc(OC(F)(F)F)cc2)c1 [Example 5, 5-(3,5-Dimethylisoxazol-4-yl)-1-(4-(trifluoromethoxy)benzyl)pyridin-2(1H)-one] | Active |  | Active | Active | Active | Active | Active |
| Cc1noc(C)c1-c1ccc(=O)n(Cc2ccc(C(N)=O)cc2)c1 [Example 13, 4-((5-(3,5-Dimethylisoxazol-4-yl)-2-oxopyridin-1(2H)-yl)methyl)benzamide] | Active |  | Active | Not Active | Active | Active | Not Active |
| COc1cc(-c2ccc(=O)n(Cc3cccc(NC(C)=O)c3)n2)cc(OC)c1OC [Example 17, N-(3-((6-Oxo-3-(3,4,5-trimethoxyphenyl)pyridazin-1(6H)-yl)methyl)phenyl)acetamide] | Active |  | Active | Active | Active | Active | Not Active |
